From US20250017964A1, “ENGINEERING OR INDUCING PDGF AND/OR PDGFR SIGNALING TO ENHANCE NK CELL THERAPY” (City of Hope, priority 2021, published 2025)

Key:
NK cells = experiment: NK cell expansion in vitro, cell counts by trypan blue exclusion; type: cell-based, human; settings: 7 days
[1] = system: PDGFRβ expression in human NK cells; experiment: Cytokine-induced PDGFRβ expression in purified human NK cells, flow cytometry; type: cell-based; settings: 24 h
Excerpt: Data shown are the percentages of PDGFRβ^+ NK cells among total NK cells (n=5). […] Bar=20 μm. […] Data represent three independent experiments. Data shown are means SD.
FIGS. 7A-7F. […] Data shown are representative histograms and mean fluorescence intensity (MFI) of PDGFRα. […] Expression levels of PDGFRβ were examined by flow cytometry (n=6). […] Data shown are the percentages of PDGFRβ^+ NK cells among total NK cells (n=5). […] Data shown are representative histograms with MFI of PDGFRβ expression. (F) Expression levels of PDGFRβ on NK cells from IL-15 transgenic (Tg) mice were determined by flow cytometry. Data shown are representative histograms. Data represent three independent experiments.
NK cells were cultured in RPMI 1640 with 10% heat-inactivated FBS (Gibco) at 37° C. in a 5% CO2 humidified incubator. For NK cell transduction, PDGFRB cDNA ORF clone (Cat: HG10514-G) was purchased from Sino Biological and cloned into pCDH-CMV-MCS-EF1-copGFP lentivirus vector (System Biosciences). To produce lentivirus, we transfected the lentiviral transfer vector DNA, together with psPAX2 packaging (Addgene) and pMD2.G envelope plasmid DNA (Addgene), into HEK293T cells; using a polyethyenimine (PEI) transfection protocol (Polysciences). Concentrated lentivirus was added to primary NK cells cultured in RPMI 1640 medium supplemented with 10% FCS and 10 jig/mL polybrene with 2,000×g centrifugation for 2 h. Cells were cultured for an additional 48 h. […] The cells were then collected for flow cytometry analysis. For the inhibition assay, NK cells were pretreated with the indicated inhibitors for 1 h, washed twice with RPMI 1640. and then treated with IL-15 for 24 h.
Cells were stained with the indicated cell-surface markers and/or fixed/permeabilized using a Fixation/Permeabilization Kit (eBioscience). For intracellular staining of IFN-γ and PDGF-D, 5 μg/ml Brefeldin A (BioLegend) was added for 4 h before cell harvest. Intracellular staining of Ki67 was performed by fixing and permeabilizing with the Foxp3/Transcription Factor Staining Kit (eBioscience).

PDGF-D promoter = experiment: ChIP-qPCR, binding of p65 to the PDGF-D promoter; type: cell-based, human; settings: IL-15-stimulated NK cells (1 h); not in resting NK cells
Method: (§1) FIGS. 5A-5J. IL-15 induces PDGF-D expression in an autocrine manner. (A) mRNA levels of PDGFA, PDGFB, PDGFC, and PDGF-D in T cells, B cells, and NK cells were analyzed using the BioGPS online tool. (B) mRNA levels of PDGFA, PDGFB, PDGFC, and PDGF-D in T cells, B cells, and NK cells were examined by qPCR (n=10). (C) Primary NK cells were treated with IL-15 (10 ng/ml) for the indicated times. mRNA levels of PDGF-D were examined by qPCR (n=3). (D-E) Representative dot plots and percentages of PDGF-D levels in NK cells after IL-15 (50 ng/ml) treatment for 24 h. Resting NK cells were used as control (n=5). […] (I-J) Binding of p65 to the PDGF-D promoter in IL-15 treated (I) or resting NK cells (J) as determined by ChIP-qPCR (n=3). Data represent three independent experiments. Data shown are means±SD. NS, not significant, *P<0.05, **P<0.01, ***P<0.001, and ****P<0.0001.
Primary NK cells were treated with IL-15 for 1 h. The cells were cross-linked in 1% formaldehyde and quenched with glycine buffer. ChIP assays were carried out using a Pierce Magnetic ChIP Kit (Cat No.26157, Thermo Scientific) according to the manufacturer's instructions. Digested chromatin was incubated overnight with a p65 ChIP-grade antibody (#8242, Cell Signaling Technology) or IgG control antibody (#3900, Cell Signaling Technology). The enriched chromatin was analyzed by qPCR using the following primers: […]

PDGF-D = PDGF-D expression in NK cells (qPCR, flow cytometry, immunoblotting, ELISA); type: cell-based, human
Method: as §1, with “NS, not significant, *P<0.05, **P<0.01, ***P<0.001, and ****P<0.0001.” left out
Cells were stained with the indicated cell-surface markers and/or fixed/permeabilized using a Fixation/Permeabilization Kit (eBioscience). […] Data were analyzed using NovoExpress software (Agilent Technologies).
RNA was isolated using an RNeasy Mini Kit (QIAGEN) and reversely transcribed to cDNA with a PrimeScript RT Reagent Kit with gDNA Eraser (Takara Bio) according to the manufacturer's protocol. mRNA expression levels were analyzed using SYBR Green qPCR Master Mix and a QuantStudio 12K Flex Real-Time PCR System (both from Thermo Fisher Scientific). […]

## PDGF-D: recombinant human PDGF-DD (1159-SB-025), R&D Systems
NK cells; IL-2 50 U/ml and PDGF-D 50 ng/ml
  expansion of primary NK cells transduced with PDGFRβ: enhanced the expansion
NK cells; primary NK cells, IL-15 10 ng/ml and PDGF-D 50 ng/ml
  NK cell expansion: promoted cell expansion

## IL-15: recombinant human IL-15 (200-15); recombinant murine IL-15 in the mouse NK cell test
[1]; cytokine 10 ng/ml, IL-15 effect dose- and time-dependent
  PDGFRβ expression: induced robust expression of PDGFRβ
[1]; sorted CD56^bright NK cells, IL-15 10 ng/ml
  PDGFRβ expression in CD56^bright NK cells: not CD56^bright NK cells
[1]; sorted CD56^dim NK cells, IL-15 10 ng/ml
  PDGFRβ expression in CD56^dim NK cells: induced PDGFRβ expression only in CD56^dim NK cells
PDGF-D promoter
  p65 enrichment at the PDGF-D promoter versus normal IgG control: significantly enriched
PDGF-D; IL-15 10 ng/ml, qPCR
  mRNA levels of PDGF-D in NK cells: significantly increased
PDGF-D; IL-15 50 ng/ml 24 h, flow cytometry, immunoblotting, ELISA
  protein levels of PDGF-D in NK cells: significantly increased
